Test results from patent US5047534A (Merrell Dow Pharmaceuticals Inc., priority 1990, dated 1991).
Read-outs that look alike come from different tables or passages of the source.

Columns and labels:
A-1 receptors = conditions: read-out: Ki at the A-1 receptors in brain membranes; cited from earlier work
adenosine A-2 receptors = target: T1, adenosine A-2 receptors (Rattus norvegicus, UniProt P30543); experiment: Test for affinity for brain adenosine A-2 receptors ([3H]NECA displacement, striatal membranes); type: binding; conditions: read-out: A2 Ki
T1 construct: tissue Charles River (animals); host or cells: brain striatum membranes, young male rats (C-D strain)
T1 sequence (P30543 whole entry): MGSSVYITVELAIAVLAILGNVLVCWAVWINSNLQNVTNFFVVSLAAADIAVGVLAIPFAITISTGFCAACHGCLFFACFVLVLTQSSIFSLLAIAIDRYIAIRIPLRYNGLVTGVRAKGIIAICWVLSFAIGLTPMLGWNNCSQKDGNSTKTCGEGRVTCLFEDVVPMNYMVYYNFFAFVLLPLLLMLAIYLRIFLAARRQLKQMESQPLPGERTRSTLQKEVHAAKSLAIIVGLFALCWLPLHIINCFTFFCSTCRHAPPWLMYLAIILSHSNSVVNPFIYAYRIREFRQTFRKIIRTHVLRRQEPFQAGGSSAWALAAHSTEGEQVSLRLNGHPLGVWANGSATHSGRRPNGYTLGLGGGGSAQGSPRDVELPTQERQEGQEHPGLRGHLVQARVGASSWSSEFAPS
Method: Membranes for ligand binding are isolated from rat brain striatum. The tissue is homogenized in 20 vol icecold 50 mM Tris-HCl buffer (pH 7.7) using a polytron (setting for 6 to 20 seconds). The homogenate is centrifuged at 50,000 x g for 10 minutes at 4° C. The pellet is again homogenized in a polytron in 20 vol of buffer, and centrifuged as before. The pellet is finally resuspended in 40 vol of 50mM Tris-HCl (pH 7.7) per gram of original wet weight of tissue.
Incubations are carried out at 25° C. for 60 minutes. Each tube is filtered through GF/B glass fiber filters using a vacuum. The filters are rinsed two times with 5 ml of the ice-cold buffer. […] The filters are counted by liquid scintillation spectrometry.
Specific binding of [3H]NECA is measured as the excess over blanks run in the presence of 100 μM 2-chloroadenosine. Total membrane-bound radioactivity is about 2.5% of that added to the test tubes. […] Specific binding to membranes is about 50% of the total bound.

Adenosine A-1 receptor [1] = target: T2, Adenosine A-1 receptor (Rattus norvegicus, UniProt P25099); experiment: biochemical
T2 sequence (P25099 1-326): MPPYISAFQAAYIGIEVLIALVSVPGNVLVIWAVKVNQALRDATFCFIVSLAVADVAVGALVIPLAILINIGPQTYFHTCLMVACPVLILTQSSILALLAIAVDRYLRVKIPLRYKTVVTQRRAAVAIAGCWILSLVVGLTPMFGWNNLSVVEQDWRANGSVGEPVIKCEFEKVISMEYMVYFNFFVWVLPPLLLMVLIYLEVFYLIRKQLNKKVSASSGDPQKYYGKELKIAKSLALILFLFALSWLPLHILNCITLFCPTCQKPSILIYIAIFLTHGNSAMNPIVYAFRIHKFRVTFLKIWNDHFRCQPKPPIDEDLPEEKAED

Adenosine A-1 receptor [2] = target: T2, Adenosine A-1 receptor; experiment: Test for affinity for brain adenosine A-1 receptor binding sites ([3H]cyclohexyladenosine displacement, whole brain membranes); conditions: ratio of A2 Ki to A1 Ki
Adenosine A-1 receptor [3] = target: T2, Adenosine A-1 receptor

| Molecule | Ki (adenosine A-2 receptors) [nM] | A2/A1 (Adenosine A-1 receptor [2]) | further results |
| --- | --- | --- | --- |
| CCCn1c(=O)c2[nH]c(-c3ccc(OCC(=O)NCCN)cc3)nc2n(CCC)c1=O [XAC] |  |  | Ki (A-1 receptors): 1.2 ± 0.5 nM |
| CCCn1c(=O)c2[nH]c(C(C)Cc3ccccc3)nc2n(CCC)c1=O (racemic) [3,7-Dihydro-8-[(±)-1-methyl-2-phenylethyl]-1,3-dipropyl-1H-purine-2,6-dione] | 644 |  |  |
| CCCn1c(=O)c2[nH]c(C3Cc4ccccc4C3)nc2n(CCC)c1=O [3,7-dihydro-8-(2-indanyl)-1,3-dipropyl-1H-purine-2,6-dione] | 7100 |  |  |
| CCCn1c(=O)c2nc([C@@H](C)Cc3ccccc3)[nH]c2n(CCC)c1=O [3,7-dihydro-8-[(1S)-1-methyl-2-phenylethyl]-1,3-dipropyl-1H-purine-2,6-dione] | 848 |  |  |
| CCCC(Cc1ccccc1)c1nc2c(=O)n(CCC)c(=O)n(CCC)c2[nH]1 (racemic) [3,7-Dihydro-8-[1-(phenylmethyl)butyl]-1,3-dipropyl-1H-purine-2,6-dione] | 608 |  |  |
| CCCn1c(=O)c2[nH]c([C@@H](CC)c3ccccc3)nc2n(CCC)c1=O [3,7-Dihydro-8-[(S)-phenylpropyl]-1,3-dipropyl-1H-purine-2,6-dione] | 1560 | 30 | Ki (Adenosine A-1 receptor [1]): 52 nM |
| CCCn1c(=O)c2[nH]c(C(CC)c3ccccc3)nc2n(CCC)c1=O (racemic) [3,7-dihydro-8-[(±)-phenylpropyl]-1,3-dipropyl-1H-purine-2,6-dione] | 1100 | 216 | Ki (Adenosine A-1 receptor [1]): 5.1 nM |
| CCCn1c(=O)c2nc(C(CC)Cc3ccccc3)[nH]c2n(CCC)c1=O (stereo not drawn) [3,7-dihydro-8-[1-(phenylmethyl)propyl]-1,3-dipropyl-1H-purine-2,6-dione] | 71700 |  |  |
| 3,7-Dihydro-8-(1-phenylethyl-2-phenylethyl)-1,3-dipropyl-1H-purine-2,6-dione | 2600 | 37 | Ki (Adenosine A-1 receptor [3]): 71 nM |
| CCCn1c(=O)c2[nH]c([C@H](CC)c3ccccc3)nc2n(CCC)c1=O [3,7-dihydro-8-[(R)-phenylpropyl]-1,3-dipropyl-1H-purine-2,6-dione] | 647 | 404 | Ki (Adenosine A-1 receptor [1]): 1.6 nM |
| CCCn1c(=O)c2nc(C(C)c3ccccc3)[nH]c2n(CCC)c1=O (stereo not drawn) [3,7-dihydro-8-(1-phenylethyl)-1,3-dipropyl-1H-purine-2,6-dione] | 1600 |  |  |
| CCCn1c(=O)c2nc(C(CO)Cc3ccccc3)[nH]c2n(CCC)c1=O (stereo not drawn) [3,7-dihydro-8-[1-(hydroxymethyl)-2-phenylethyl]-1,3-dipropyl-1H-purine-2,6-dione] | 3900 |  |  |
| CCCn1c(=O)c2[nH]c([C@H](C)Cc3ccccc3)nc2n(CCC)c1=O [3,7-dihydro-8-[(1R)-1-methyl-2-phenylethyl]-1,3-dipropyl-1H-purine-2,6-dione] | 157 |  |  |
| C=CCn1c(=O)c2[nH]c(C(C)c3ccccc3)nc2n(CC=C)c1=O (stereo not drawn) [3,7-dihydro-8-(1-phenylethyl)-1,3-di-2-propenyl-1H-purine-2,6-dione] | 2400 | 119 | Ki (Adenosine A-1 receptor [1]): 20 nM |
